From US5958935A, “Substituted 2-anilinopyrimidines useful as protein kinase inhibitors” (Celltech Therapeutics Limited, priority 1995, dated 1999)

What was measured:
Assay type in all cases: biochemical
[1] = target: protein kinase C (PKC); assay: Protein kinase C assay; settings: for activity in the protein kinase C assay: in words
Procedure: (§1) Inhibitor activity against protein kinase C (PKC) was determined using PKC obtained from Sigma Chemical Company (Poole, UK) and a commercially available assay system (Amersham International plc, Little Chalfont, UK). Briefly, PKC catalyses the transfer of the γ-phosphate (^32 p) of ATP to the threonine group on a peptide specific for PKC. Phosphorylated peptide is bound to phosphocellulose paper, subsequently quantified by scintillation counting and IC50 values determined as before.

[2] = test system: remaining kinases; assay: Selectivity over the remaining kinases described (p56^lck, p59^fyn, EGFr, ZAP-70, Csk, protein kinase C assays)
Procedure: (§2) All assays were performed in 20 mM HEPES pH 7.5 containing 10 mM MgCl2, 10 mM MnCl2, 0.05% Brij, 1 μM ATP (0.5 μCi[γ-^33 P]ATP) and 0.8 mg/ml RR-src. […] After incubation at 30° C. for 15 min, the reaction was terminated by the addition of one-third volume of stop reagent (0.25 mM EDTA and 33 mM ATP in dH2 O). A 15 μl aliquot was removed, spotted onto a P-30 filtermat (Wallac, Milton Keynes, UK), and washed sequentially with 1% acetic acid and dH2 O to remove ATP. The bound ^33 P-RR-src was quantitated by scintillation counting of the filtermat in a Betaplate scintillation counter (Wallac, Milton Keynes, UK) after addition of Meltilex scintillant (Wallac, Milton Keynes, UK). The dpm obtained, being directly proportional to the amount of ^33 P-RR-src produced by p56^lck, were used to determine the IC50 for each compound.
IC50 values for each test inhibitor were determined as described previously in the p56^lck assay.
(§3) The tyrosine kinase activity of ZAP-70 was determined using a capture assay based on that employed above for p56^lck. The RR-src peptide was replaced with polyGlu-Tyr (Sigma; Poole, UK) at a final concentration of 17 μg/ml. After addition of the stopped reaction to the filtermat, trichloroacetic acid 10% (w/v) was employed as the wash reagent instead of acetic acid and a final wash in absolute ethanol was also performed before scintillation counting. IC50 values for each test inhibitor were determined as described above in the p56^lck assay.
as §1, with “PKC.” for “PKC. Phosphorylated peptide is bound to phosphocellulose paper, subsequently quantified by scintillation counting and IC50 values determined as before.”
Phosphorylated peptide is bound to phosphocellulose paper, subsequently quantified by scintillation counting and IC50 values determined as before.

[3] = target: T1, ZAP-70 (Homo sapiens, UniProt P43403); assay: ZAP-70 kinase assay; settings: polyGlu-Tyr 17 μg/ml
T1 sequence (P43403 1-619): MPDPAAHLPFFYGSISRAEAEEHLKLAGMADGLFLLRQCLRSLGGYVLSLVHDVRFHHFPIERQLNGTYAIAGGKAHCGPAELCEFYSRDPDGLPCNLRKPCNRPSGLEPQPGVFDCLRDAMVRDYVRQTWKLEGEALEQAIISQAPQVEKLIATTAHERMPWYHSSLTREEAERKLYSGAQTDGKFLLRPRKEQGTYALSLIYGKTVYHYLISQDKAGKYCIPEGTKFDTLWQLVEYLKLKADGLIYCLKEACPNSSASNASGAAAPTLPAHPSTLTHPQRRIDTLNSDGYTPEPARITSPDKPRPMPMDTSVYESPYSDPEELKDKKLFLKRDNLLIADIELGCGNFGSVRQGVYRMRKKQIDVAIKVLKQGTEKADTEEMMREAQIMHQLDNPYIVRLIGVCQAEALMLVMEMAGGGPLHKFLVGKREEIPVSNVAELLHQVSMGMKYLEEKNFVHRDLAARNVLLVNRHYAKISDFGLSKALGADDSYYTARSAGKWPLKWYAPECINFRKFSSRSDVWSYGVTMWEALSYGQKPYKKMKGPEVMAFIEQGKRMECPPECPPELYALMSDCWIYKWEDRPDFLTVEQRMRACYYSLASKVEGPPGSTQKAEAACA
Procedure: as §3

[4] = test system: human p59^fyn; assay: p59^fyn kinase assay; settings: in words
Procedure: Compounds of the invention were assayed for p59^fyn inhibitory activity in a similar manner to the p56^lck assay, using human p59^fyn.

[5] = target: human p56^lck (Homo sapiens, UniProt P06239); assay: p56^lck kinase assay; settings: 1 μM ATP, RR-src, pH 7.5, 30° C., 15 min
Chain of human p56^lck (P06239 whole entry): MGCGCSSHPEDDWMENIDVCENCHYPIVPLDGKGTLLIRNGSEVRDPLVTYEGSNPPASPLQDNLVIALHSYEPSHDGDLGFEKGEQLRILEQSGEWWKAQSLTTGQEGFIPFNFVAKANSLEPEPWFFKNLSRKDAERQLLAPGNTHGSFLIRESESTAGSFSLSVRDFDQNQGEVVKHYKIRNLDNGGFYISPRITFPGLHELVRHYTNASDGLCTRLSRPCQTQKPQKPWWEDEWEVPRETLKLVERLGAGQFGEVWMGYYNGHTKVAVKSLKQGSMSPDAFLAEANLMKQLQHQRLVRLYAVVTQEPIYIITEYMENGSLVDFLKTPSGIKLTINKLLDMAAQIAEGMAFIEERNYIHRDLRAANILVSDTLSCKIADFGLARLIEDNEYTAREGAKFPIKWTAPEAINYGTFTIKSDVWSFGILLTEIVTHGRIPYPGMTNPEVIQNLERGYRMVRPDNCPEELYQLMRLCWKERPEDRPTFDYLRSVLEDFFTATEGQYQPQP
Procedure: The tyrosine kinase activity of p56^lck was determined using a RR-src peptide (RRLIEDNEYTARG) and [γ-^33 P]ATP as substrates. Quantitation of the ^33 P-phosphorylated peptide formed by the action of p56^lck was achieved using an adaption of the method of Geissler et al (J. Biol. Chem. (1990) 265, 22255-22261).
as §2

[6] = relative to protein kinase C, remaining = other than protein kinase C
[7] = relative to ZAP-70, remaining = other than ZAP-70 and protein kinase C
[8] = relative to p56^lck, remaining = other than p56^lck and p59^fyn

Row | IC50 [1] [nM] | IC50 values at least 10× greater against the remaining kinases [2, 6] | activity in the protein kinase C assay [1] | IC50 [3] [nM] | IC50 values at least 10× greater against the remaining kinases [2, 7] | activity against p59^fyn [4] | IC50 [5] [nM] | IC50 values at least 10× greater against the remaining kinases [2, 8] | SMILES
1 | 22 | at least 10 × | – | – | – | – | – | – | COc1cc(Nc2nccc(-c3cccc(OCCCN)c3)n2)cc(OC)c1OC.Cl.Cl [Example 48, 4-(3-(3-Aminopropoxy)phenyl)-N-(3,4,5-trimethoxyphenyl)-2-pyrimidineamine dihydrochloride]
2 | – | – | active | 124 | at least 10 × | – | – | – | COc1cc(Nc2nccc(-c3ccc(NCCN)nc3)n2)cc(OC)c1OC [Example 64, 4-(2-(2-Aminoethylamino)pyridin-5-yl)-N-(3,4,5-trimethoxyphenyl)-2-pyrimidineamine]
3 | – | – | active | 68 | at least 10 × | – | – | – | COc1cc(Nc2nccc(-c3ccc(NCCCN)nc3)n2)cc(OC)c1OC [Example 66, 4-(2-(3-Aminopropylamino)pyridin-5-yl)-N-(3,4,5-trimethoxyphenyl)-2-pyrimidineamine]
4 | 92 | at least 10 × | – | – | – | – | – | – | COc1cc(Nc2nccc(-c3ccc(NCCC4CCCN4C)nc3)n2)cc(OC)c1OC (stereo not shown) [Example 81, 4-(2-(2-(1-Methylpyrrolidin-2-yl)ethylamino)pyridin-5-yl)-N-(3,4,5-trimethoxyphenyl)-2-pyrimidineamine]
5 | – | – | – | – | – | active | 215 | at least 10 × | COc1ccc(Nc2ccnc(Nc3cc(OC)c(OC)c(OC)c3)n2)cc1OC [Example 96, N4-(3,4-Dimethoxyphenyl)-N2-(3,4,5-trimethoxyphenyl)-2,4-pyrimidinediamine]
6 | – | – | – | – | – | active | 40 | at least 10 × | CCOC(=O)Cc1ccc(Nc2ccnc(Nc3cc(OC)c(OC)c(OC)c3)n2)cc1 [Example 103, N4-(4-(Ethoxycarbonylmethyl)phenyl)-N2-(3,4,5-trimethoxyphenyl)-2,4-pyrimidinediamine]
